From patent US20170348322A1, “BK Channels as Non-Genomic Estrogen Targets for Overactive Bladder” (priority 2016, published 2017)

Legend:
[1] = tested on: pig DSM isolated strips; details: 17β-estradiol 30 μM; cited from earlier work
[2] = tested on: human DSM isolated strips; test: Isometric tension recordings: nerve-evoked (EFS-induced) contractions of DSM isolated strips; format: cell-based; details: 17β-estradiol 100 nM; in particular at lower stimulation frequencies (0.5-20.0 Hz); n=7, N=3; P<0.05
Experimental: (§1) Isometric DSM tension recordings: Isometric DSM tension recordings of human DSM isolated strips (˜7-8 mm long and ˜4-5 mm wide) were conducted as previously described (Hristov K L, Chen M, Kellett W F, Rovner E S, and Petkov G V. Large-conductance voltage- and Ca2+-activated K+ channels regulate human detrusor smooth muscle function. Am J Physiol Cell Physiol 301: C903-912, 2011; Hristov K L, Parajuli S P, Soder R P, Cheng Q, Rovner E S, and Petkov G V. Suppression of human detrusor smooth muscle excitability and contractility via pharmacological activation of large conductance Ca2+-activated K+ channels. Am J Physiol Cell Physiol 302: C1632-1641, 2012).
(§2) Solutions and drugs: Ca^2+-free dissection solution contained (in mM): 80 monosodium glutamate, 55 NaCl, 6 KCl, 10 glucose, 10 HEPES,2 MgCl2, and the pH was adjusted to 7.3 with NaOH. […] Extracellular and patch-pipette solutions for single BK channel recordings contained (in mM): 140 KCl, 1.08 MgCl2, 5 EGTA, 10 HEPES, and 3.16 CaCl2, adjusted to pH 7.2 with NaOH (Ca^2+ free concentration was calculated ˜300 nM with WEBMAXC Standard, http://www.stanford.edu/˜cpatton/webmaxcS.htm, Chris Patton). […]

[3] = tested on: human DSM cells; test: Resting membrane potential (RMP) of DSM cells, current-clamp; format: cell-based
Experimental: (§3) Patch-clamp electrophysiological experiments: Patch-clamp experiments were performed as previously described. (Hristov K L, Chen M, Kellett W F, Rovner E S, and Petkov G V. Large-conductance voltage- and Ca2+-activated K+ channels regulate human detrusor smooth muscle function. Am J Physiol Cell Physiol 301: C903-912, 2011; Hristov K L, Parajuli S P, Soder R P, Cheng Q, Rovner E S, and Petkov G V. Suppression of human detrusor smooth muscle excitability and contractility via pharmacological activation of large conductance Ca2+-activated K+ channels. Am J Physiol Cell Physiol 302: C1632-1641, 2012; Malysz J, Rovner E S, and Petkov G V. Single-channel biophysical and pharmacological characterizations of native human large-conductance calcium-activated potassium channels in freshly isolated detrusor smooth muscle cells. Pflugers Arch 465: 965-975, 2013; Parajuli S P, Hristov K L, Cheng Q P, Malysz J, Rovner E S, and Petkov G V. Functional link between muscarinic receptors and large-conductance Ca2+-activated K+ channels in freshly isolated human detrusor smooth muscle cells. Pflugers Arch 467: 665-675, 2015.)
The current disclosure applied the amphotericin B-perforated whole cell patch-clamp technique to record transient BK currents (TBKCs), depolarization-induced steady-state whole cell BK currents, and the resting membrane potential (RMP) of human freshly-isolated DSM cells. TBKCs in DSM cells were recorded at the holding potential of −20 mV. Depolarization-induced steady-state whole cell BK currents were elicited by holding the DSM cells at −70 mV and then brief, 200 ms depolarization steps were applied from −40 mV to +80 mV in increments of 20 mV. Single BK channel activity was recorded from inside-out excised membrane patches using symmetrical K^+ (140 mM) solutions, at a holding potential of −60 mV (Vh=−60 mV). The electrochemical driving force for K^+ in these experimental conditions was +60 mV (VDV=60 mV). Paxilline (1 μM), a selective BK channel inhibitor was used to dissect their functional role in mediating 17β-estradiol induced effects on DSM function. All patch-clamp experiments were conducted at room temperature (22-23° C.).
as §2

[4] = target: T1, BK channels (Homo sapiens, UniProt Q12791+Q16558); test: Single BK channel recordings, inside-out excised membrane patches of DSM cells; format: biochemical; details: 17β-estradiol 100 nM, n=9, N=7
T1 construct: Human single DSM cells were enzymatically isolated as previously described; endogenous in cells; host or cells: freshly-isolated human detrusor smooth muscle (DSM) cells from open bladder surgery specimens
T1 sequence (Q12791 whole entry): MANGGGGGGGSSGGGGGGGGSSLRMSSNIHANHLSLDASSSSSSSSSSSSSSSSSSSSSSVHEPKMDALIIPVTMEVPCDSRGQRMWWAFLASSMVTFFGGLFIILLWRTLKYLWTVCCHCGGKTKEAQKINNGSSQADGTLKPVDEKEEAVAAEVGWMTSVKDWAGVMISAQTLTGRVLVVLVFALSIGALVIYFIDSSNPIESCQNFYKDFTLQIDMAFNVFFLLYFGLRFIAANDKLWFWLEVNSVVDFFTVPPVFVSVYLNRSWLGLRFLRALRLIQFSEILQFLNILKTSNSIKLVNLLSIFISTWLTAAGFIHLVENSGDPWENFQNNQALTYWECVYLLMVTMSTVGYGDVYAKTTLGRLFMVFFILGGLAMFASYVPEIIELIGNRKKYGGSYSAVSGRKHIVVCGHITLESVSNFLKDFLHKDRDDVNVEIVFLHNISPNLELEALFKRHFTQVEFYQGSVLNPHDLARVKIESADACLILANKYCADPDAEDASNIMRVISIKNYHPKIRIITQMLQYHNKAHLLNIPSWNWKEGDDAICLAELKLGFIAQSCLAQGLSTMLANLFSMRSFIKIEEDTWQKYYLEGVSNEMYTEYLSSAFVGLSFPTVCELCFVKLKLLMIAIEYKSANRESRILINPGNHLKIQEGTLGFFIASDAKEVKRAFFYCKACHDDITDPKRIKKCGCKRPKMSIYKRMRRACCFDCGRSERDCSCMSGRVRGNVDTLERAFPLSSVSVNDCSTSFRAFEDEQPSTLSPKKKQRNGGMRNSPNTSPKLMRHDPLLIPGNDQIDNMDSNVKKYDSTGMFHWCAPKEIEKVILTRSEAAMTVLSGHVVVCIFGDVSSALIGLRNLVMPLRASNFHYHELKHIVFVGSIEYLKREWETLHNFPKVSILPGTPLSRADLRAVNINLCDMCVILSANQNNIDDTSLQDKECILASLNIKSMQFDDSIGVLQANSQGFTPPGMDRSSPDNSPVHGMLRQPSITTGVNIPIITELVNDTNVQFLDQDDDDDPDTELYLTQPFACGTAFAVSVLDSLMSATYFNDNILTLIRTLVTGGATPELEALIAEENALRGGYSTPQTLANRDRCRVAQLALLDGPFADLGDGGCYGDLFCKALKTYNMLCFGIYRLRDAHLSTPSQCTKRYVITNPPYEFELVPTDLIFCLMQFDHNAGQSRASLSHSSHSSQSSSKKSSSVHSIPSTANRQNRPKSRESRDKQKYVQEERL
T1 sequence (Q16558 whole entry): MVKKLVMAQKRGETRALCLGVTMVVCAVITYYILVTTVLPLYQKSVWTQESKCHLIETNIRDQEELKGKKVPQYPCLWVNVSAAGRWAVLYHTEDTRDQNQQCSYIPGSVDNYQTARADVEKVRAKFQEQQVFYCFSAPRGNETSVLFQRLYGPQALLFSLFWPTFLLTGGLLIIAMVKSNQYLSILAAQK
Experimental: (§4) Patch-clamp electrophysiological experiments: Patch-clamp experiments were performed as previously described. […]
(§5) The current disclosure applied the amphotericin B-perforated whole cell patch-clamp technique to record transient BK currents (TBKCs), depolarization-induced steady-state whole cell BK currents, and the resting membrane potential (RMP) of human freshly-isolated DSM cells. TBKCs in DSM cells were recorded at the holding potential of −20 mV. […] Single BK channel activity was recorded from inside-out excised membrane patches using symmetrical K^+ (140 mM) solutions, at a holding potential of −60 mV (Vh=−60 mV). […]
as §2

[5] = target: T1, BK channels; test: Depolarization-induced steady-state whole cell outward BK currents, amphotericin B-perforated patch-clamp, freshly-isolated DSM cells; format: cell-based
From the text: as §3, with “DSM single cell isolation: Human single DSM cells” for “Patch-clamp electrophysiological experiments: Patch-clamp experiments”, “enzymatically isolated” for “performed”, “2012;” for “2012; Malysz J, Rovner E S, and Petkov G V. Single-channel biophysical and pharmacological characterizations of native human large-conductance calcium-activated potassium channels in freshly isolated detrusor smooth muscle cells. Pflugers Arch 465: 965-975, 2013;”
as §4, §5

[6] = tested on: human DSM isolated strips; test: Isometric tension recordings: spontaneous phasic contractions of DSM isolated strips; format: cell-based
Experimental: Human DSM specimen collection: The study forming the basis for the current disclosure was conducted according to protocol Pro00045232, reviewed and approved by the Medical University of South Carolina Institutional Review Board. […] The DSM tissue samples were obtained during open bladder surgeries performed for a variety of indications such as bladder cancer, including radical cystectomy for urothelial carcinoma, and adenocarcinoma. In such cases, the collected DSM tissue was remote from the site of tumor. DSM strips were dissected from the bladder specimens, and after removing the urothelial and lamina propria layers, the strips were used for single DSM cell isolation and isometric DSM tension recordings.
as §1
Solutions and drugs: Ca^2+-free dissection solution contained (in mM): 80 monosodium glutamate, 55 NaCl, 6 KCl, 10 glucose, 10 HEPES,2 MgCl2, and the pH was adjusted to 7.3 with NaOH. For the functional studies on human DSM contractility, the physiological saline solution had the following composition (in mM): 119 NaCl, 4.7 KCl, 24 NaHCO3, 1.2 KH2PO4, 2.5 CaCl2, 1.2 MgSO4, and 11 D-glucose, aerated with 95% O2-5% CO2 (pH 7.4). Extracellular (bath) solution used for the perforated whole cell patch-clamp experiments contained (in mM): 134 NaCl, 6 KCl, 1 MgCl2, 2 CaCl2, 10 glucose, 10 HEPES, and pH was adjusted to 7.4 with NaOH. The patch-pipette solution for the perforated patch-clamp experiments contained (in mM): 110 potassium aspartate, 30 KCl, 10 NaCl, 1 MgCl2, 10 HEPES, 0.05 EGTA, and pH was adjusted to 7.2 with NaOH. Amphotericin-B stock solution was prepared daily in dimethyl sulfoxide (DMSO) and was added to the pipette solution (200 μg/ml) before the experiment and was replaced every 1-2 h. Extracellular and patch-pipette solutions for single BK channel recordings contained (in mM): 140 KCl, 1.08 MgCl2, 5 EGTA, 10 HEPES, and 3.16 CaCl2, adjusted to pH 7.2 with NaOH (Ca^2+ free concentration was calculated ˜300 nM with WEBMAXC Standard, http://www.stanford.edu/˜cpatton/webmaxcS.htm, Chris Patton). […]
Data analysis and statistics: Clampfit 10.3 (Molecular Device, Union City, Calif.) and Minianalysis software (Synaptosoft, Inc., NJ) were used to analyze the data. Mean values of the last 50 ms pulse of 200 ms depolarization step of at least 5 average files in the absence (control) and in the presence of 17β-estradiol were analyzed to evaluate the effects of 17β-estradiol on steady-state whole cell BK currents. […] Five minutes of at least an 8-10 min stable patch-clamp recording prior to application of 17β-estradiol were analyzed for control data, and the last 5 min of continuous recordings of 10-15 min after application of 17β-estradiol were analyzed to evaluate the effects of 17β-estradiol on RMP or TBKCs. […]

[7] = target: T1, BK channels; test: Transient BK currents (TBKCs), perforated whole cell patch-clamp, freshly-isolated DSM cells; format: cell-based; details: 17β-estradiol 100 nM, holding potential −20 mV
From the text: as §3, with “DSM single cell isolation: Human single DSM cells” for “Patch-clamp electrophysiological experiments: Patch-clamp experiments”, “enzymatically isolated” for “performed”, “2012;” for “2012; Malysz J, Rovner E S, and Petkov G V. Single-channel biophysical and pharmacological characterizations of native human large-conductance calcium-activated potassium channels in freshly isolated detrusor smooth muscle cells. Pflugers Arch 465: 965-975, 2013;”, “2015.) […]” for “2015.)”
as §5

[8] = tested on: rat DSM isolated strips; details: 17β-estradiol 30 μM; cited from earlier work
[9] = 17β-estradiol 100 nM-1 μM, strips pre-incubated with paxilline (1 μM), n=5, N=5, P>0.05
[10] = 17β-estradiol 1 μM, n=8, N=5, P<0.05

C[C@]12CC[C@@H]3c4ccc(O)cc4CC[C@H]3[C@@H]1CC[C@@H]2O [17β-estradiol]
effect on KCl- and muscarinic receptor-induced contractions [1]: inhibitory effects | effect on EFS-induced contractions [2]: significantly inhibited | DSM cell RMP ([3]; 17β-estradiol 100 nM, control −25.7±3.2 mV, n=11, N=9, P<0.05): −28.9±3.3 mV | hyperpolarization of the DSM cell RMP ([3]; 17β-estradiol 100 nM, n=11, N=9, P<0.05): ~3 mV | DSM cell RMP ([3]; 17β-estradiol in the presence of paxilline (1 μM), n=8, N=5, P>0.05): −21.9±4.4 mV | single BK channel open probability (NPo) ([4]; Vh=−60 mV, control 0.086±0.030, P<0.05): 0.137±0.030 | single BK channel current amplitude ([4]; control 11.7±0.7 pA, P>0.05): 11.9±0.5 pA | effect on whole cell K+ current density ([5]; 17β-estradiol 100 nM, n=12, N=8, P<0.05): significantly increased | whole cell outward K+ currents ([5]; at +80 mV, 17β-estradiol 100 nM, control 33.9±6.5 pA/pF, n=12, N=8, P<0.05): 44.5±7.8 pA/pF | BK current amplitude ([5]; at +80 mV, both paxilline (1 μM) and 17β-estradiol (100 nM), vs 6.1±1.7 paxilline alone, P>0.05): 6.8±1.8 pA/pF | effect on muscle force integral [6, 9]: did not affect | effect on spontaneous phasic contraction amplitude [6, 9]: did not affect | decrease of muscle force integral [6, 10]: 44.4±13.2% | decrease of spontaneous phasic contraction amplitude [6, 10]: 53.3±8.9% | effect on phasic contraction frequency ([6]; 17β-estradiol 1 μM, n=8, N=5, P>0.05): without significantly changing | effect on average TBKC amplitude [7]: without significantly altering | increase of the frequency of TBKCs ([7]; control taken as 100%, n=8, N=5, P<0.05): 74.6±37.8% | effect on pharmacologically-induced and nerve-evoked contractions [8]: decrease

CC(C)(O)[C@H]1O[C@H]2CC[C@@]3(C)[C@@](O)(CC[C@H]4Cc5c([nH]c6ccccc56)[C@@]43C)C2=CC1=O [paxilline]
DSM cell RMP ([3]; paxilline only (1 μM), n=8, N=5): −22.1±4.7 mV
